This is an account of results in US11857669B2, “Treatment of a disease of the gastrointestinal tract with a JAK inhibitor and devices” (BIORA THERAPEUTICS, INC., priority 2016, dated 2024).

The series can be described thus: Tacrolimus tissue pharmacokinetics, oral vs intra-cecal ingestible device delivery. It counts as in vivo, Yorkshire-Cross farm swine. As to conditions: swine; intra-cecally vs orally administered; 12 hours post-dose; FIG. 76. How it is done:
The primary objective of this study was to compare the tissue, plasma, rectal sample, and GI content pharmacokinetics of tacrolimus through oral versus intra-cecal ingestible device delivery in normal Yorkshire-Cross farm swine.
No further randomization procedure was employed.
Animals in Group 1 received an ingestible device containing 0.8 mL of vehicle solution (80% alcohol, 20% HCO-60). Animals in Group 2 received orally […] liquid formulation of tacrolimus at 4 mg/0.8 mL per animal (Prograf: 5 mg/mL). Animals in Group 3 received intra-cecally an ingestible device containing tacrolimus at 1 mg in 0.8 mL per ingestible device. Animals in Group 4 received intra-cecally an ingestible device containing tacrolimus at 2 mg in 0.8 mL per ingestible device. Animals in Group 5 received intra-cecally an ingestible device containing tacrolimus at 4 mg in 0.8 mL per ingestible device. […]
For tissue necropsy, small intestine fluid and cecal fluid were collected separately from all the animals into two separate square plastic bottles, and stored at −20° C. The length and diameter of the cecum and the colon was measured from one animal in each group and recorded for reference. […] All samples were weighed, and the tissue sample weights were recorded. […] Around 3 grams of the total punched sample were collected into a pre-weighed 15-mL conical tube, and the tissue weight was recorded. […]

As for `C=CC[C@@H]1/C=C(\C)C[C@H](C)C[C@H](OC)[C@H]2O[C@@](O)(C(=O)C(=O)N3CCCC[C@H]3C(=O)O[C@H](/C(C)=C/[C@@H]3CC[C@@H](O)[C@H](OC)C3)[C@H](C)[C@@H](O)CC1=O)[C@H](C)C[C@@H]2OC` [tacrolimus], the “mean concentration of tacrolimus in the cecum tissue and the proximate colon tissue” value is “higher”.
